# Experimental data: PubChem BioAssay AID1919004 (Molecular Pharmacology Branch, DTP, NCI, 2023)
# Test system: 883617-216-R-J1-PDC complex spheroids, growth, % test/control
# Assay: Anticancer human tumor 883617-216-R-J1-PDC patient-derived bladder carcinoma cell line growth inhibition [AhR]
# Settings: for IC50: curve of first compound; for viability, T/C: stronger effect = lower value
# Method in brief: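 Complex tumor spheroids co-cultured with HUVEC and human MSC stroma; AhR antagonists tested in combination with standard-of-care and investigational agents. Top concentration at or near clinical Cmax (else 10 microM), half-log dilutions; growth expressed as percent test/control.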
# [1] = second compound 0.1 µM, first compound 0.0316 µM
# [2] = second compound 0.1 µM, first compound 0.1 µM
# [3] = second compound 0.1 µM, first compound 0.316 µM
# [4] = second compound 0.1 µM, first compound 1 µM
# [5] = second compound 0.316 µM, first compound 0.0316 µM
# [6] = second compound 0.316 µM, first compound 0.1 µM
# [7] = second compound 0.316 µM, first compound 0.316 µM
# [8] = second compound 0.316 µM, first compound 1 µM
# [9] = second compound 1 µM, first compound 0.0316 µM
# [10] = second compound 1 µM, first compound 0.1 µM
# [11] = second compound 1 µM, first compound 0.316 µM
# [12] = second compound 1 µM, first compound 1 µM
# [13] = second compound 3.16 µM, first compound 0.0316 µM
# [14] = second compound 3.16 µM, first compound 0.1 µM
# [15] = second compound 3.16 µM, first compound 0.316 µM
# [16] = second compound 3.16 µM, first compound 1 µM
# [17] = second compound 10 µM, first compound 0.0316 µM
# [18] = second compound 10 µM, first compound 0.1 µM
# [19] = second compound 10 µM, first compound 0.316 µM
# [20] = second compound 10 µM, first compound 1 µM
# [21] = second compound 0.1 µM, first compound 3.16 µM
# [22] = second compound 0.1 µM, first compound 10 µM
# [23] = second compound 0.316 µM, first compound 3.16 µM
# [24] = second compound 0.316 µM, first compound 10 µM
# [25] = second compound 1 µM, first compound 3.16 µM
# [26] = second compound 1 µM, first compound 10 µM
# [27] = second compound 3.16 µM, first compound 3.16 µM
# [28] = second compound 3.16 µM, first compound 10 µM
# [29] = second compound 10 µM, first compound 3.16 µM
# [30] = second compound 10 µM, first compound 10 µM
# [31] = second compound 0.1 µM, first compound 0.00949 µM
# [32] = second compound 0.1 µM, first compound 0.03 µM
# [33] = second compound 0.1 µM, first compound 0.0949 µM
# [34] = second compound 0.1 µM, first compound 0.3 µM
# [35] = second compound 0.316 µM, first compound 0.00949 µM
# [36] = second compound 0.316 µM, first compound 0.03 µM
# [37] = second compound 0.316 µM, first compound 0.0949 µM
# [38] = second compound 0.316 µM, first compound 0.3 µM
# [39] = second compound 1 µM, first compound 0.00949 µM
# [40] = second compound 1 µM, first compound 0.03 µM
# [41] = second compound 1 µM, first compound 0.0949 µM
# [42] = second compound 1 µM, first compound 0.3 µM
# [43] = second compound 3.16 µM, first compound 0.00949 µM
# [44] = second compound 3.16 µM, first compound 0.03 µM
# [45] = second compound 3.16 µM, first compound 0.0949 µM
# [46] = second compound 3.16 µM, first compound 0.3 µM
# [47] = second compound 10 µM, first compound 0.00949 µM
# [48] = second compound 10 µM, first compound 0.03 µM
# [49] = second compound 10 µM, first compound 0.0949 µM
# [50] = second compound 10 µM, first compound 0.3 µM
# 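Note: exposure lasted 7 days after dosing on day 3 of spheroid growth.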
structure (smiles),measurement,setting,value
CC1COCCN1c1cc(-c2ccnn2C)c2ccnc(-c3ccn[nH]3)c2n1 (stereo not given) + Cc1ccccc1N=Nc1ccc(NC(=O)c2ccnn2C)c(C)c1,IC50,second compound 0.1 µM,906 nM
same,IC50,second compound 0.316 µM,> 1000 nM
same,IC50,second compound 1 µM,813 nM
same,IC50,second compound 3.16 µM,491 nM
same,IC50,second compound 10 µM,624 nM
same,"viability, T/C","second compound 0.1 µM, first compound 0.00316 µM",98%
same,"viability, T/C","second compound 0.1 µM, first compound 0.01 µM",96.6%
same,"viability, T/C",[1],76.7%
same,"viability, T/C",[2],74.6%
same,"viability, T/C",[3],58.6%
same,"viability, T/C",[4],49.1%
same,"viability, T/C","second compound 0.316 µM, first compound 0.00316 µM",97.7%
same,"viability, T/C","second compound 0.316 µM, first compound 0.01 µM",83.3%
same,"viability, T/C",[5],85.9%
same,"viability, T/C",[6],69.6%
same,"viability, T/C",[7],55.7%
same,"viability, T/C",[8],51.4%
same,"viability, T/C","second compound 1 µM, first compound 0.00316 µM",84.4%
same,"viability, T/C","second compound 1 µM, first compound 0.01 µM",88.8%
same,"viability, T/C",[9],70.3%
same,"viability, T/C",[10],67.7%
same,"viability, T/C",[11],56%
same,"viability, T/C",[12],48.4%
same,"viability, T/C","second compound 3.16 µM, first compound 0.00316 µM",86.5%
same,"viability, T/C","second compound 3.16 µM, first compound 0.01 µM",81.2%
same,"viability, T/C",[13],71.2%
same,"viability, T/C",[14],71.2%
same,"viability, T/C",[15],49.8%
same,"viability, T/C",[16],44.3%
same,"viability, T/C","second compound 10 µM, first compound 0.00316 µM",77.9%
same,"viability, T/C","second compound 10 µM, first compound 0.01 µM",79.7%
same,"viability, T/C",[17],66.6%
same,"viability, T/C",[18],61.7%
same,"viability, T/C",[19],52.4%
same,"viability, T/C",[20],48.1%
CC1COCCN1c1cc(C2(S(C)(=N)=O)CC2)nc(-c2ccnc3[nH]ccc23)n1 (stereo not given) + Cc1ccccc1N=Nc1ccc(NC(=O)c2ccnn2C)c(C)c1,IC50,second compound 0.1 µM,> 10000 nM
same,IC50,second compound 0.316 µM,> 10000 nM
same,IC50,second compound 1 µM,> 10000 nM
same,IC50,second compound 3.16 µM,> 10000 nM
same,IC50,second compound 10 µM,> 10000 nM
same,"viability, T/C",[1],97.9%
same,"viability, T/C",[2],97%
same,"viability, T/C",[3],88%
same,"viability, T/C",[4],84.9%
same,"viability, T/C",[21],70.9%
same,"viability, T/C",[22],54.6%
same,"viability, T/C",[5],90.5%
same,"viability, T/C",[6],93.6%
same,"viability, T/C",[7],81.2%
same,"viability, T/C",[8],89.9%
same,"viability, T/C",[23],82%
same,"viability, T/C",[24],55.4%
same,"viability, T/C",[9],87.7%
same,"viability, T/C",[10],90.9%
same,"viability, T/C",[11],82.4%
same,"viability, T/C",[12],84.8%
same,"viability, T/C",[25],77.1%
same,"viability, T/C",[26],54.8%
same,"viability, T/C",[13],86.5%
same,"viability, T/C",[14],77.6%
same,"viability, T/C",[15],75%
same,"viability, T/C",[16],75%
same,"viability, T/C",[27],61.5%
same,"viability, T/C",[28],58.8%
same,"viability, T/C",[17],75.7%
same,"viability, T/C",[18],81.5%
same,"viability, T/C",[19],82%
same,"viability, T/C",[20],77.3%
same,"viability, T/C",[29],73.5%
same,"viability, T/C",[30],57.1%
COc1ccc([C@@H](O)c2cc(-c3ncnc4cc(N5CCOCC5)ccc34)c(F)cc2Cl)nn1 + Cc1ccccc1N=Nc1ccc(NC(=O)c2ccnn2C)c(C)c1,IC50,second compound 0.1 µM,3450 nM
same,IC50,second compound 0.316 µM,2300 nM
same,IC50,second compound 1 µM,2420 nM
same,IC50,second compound 3.16 µM,1780 nM
same,IC50,second compound 10 µM,1690 nM
same,"viability, T/C",[1],97.8%
same,"viability, T/C",[2],91.4%
same,"viability, T/C",[3],81.3%
same,"viability, T/C",[4],67.8%
same,"viability, T/C",[21],51.4%
same,"viability, T/C",[22],33.8%
same,"viability, T/C",[5],83.7%
same,"viability, T/C",[6],84.9%
same,"viability, T/C",[7],78.3%
same,"viability, T/C",[8],61.4%
same,"viability, T/C",[23],46.4%
same,"viability, T/C",[24],33.9%
same,"viability, T/C",[9],91.1%
same,"viability, T/C",[10],80.7%
same,"viability, T/C",[11],72.8%
same,"viability, T/C",[12],60.2%
same,"viability, T/C",[25],47.2%
same,"viability, T/C",[26],32.6%
same,"viability, T/C",[13],76.8%
same,"viability, T/C",[14],80%
same,"viability, T/C",[15],76.1%
same,"viability, T/C",[16],58.2%
same,"viability, T/C",[27],41.9%
same,"viability, T/C",[28],32.9%
same,"viability, T/C",[17],75.4%
same,"viability, T/C",[18],74.2%
same,"viability, T/C",[19],64.5%
same,"viability, T/C",[20],57.3%
same,"viability, T/C",[29],42.3%
same,"viability, T/C",[30],34.2%
Nc1ncn(C2CC(O)C(CO)S2)c(=O)n1 (stereo not given) + Cc1ccccc1N=Nc1ccc(NC(=O)c2ccnn2C)c(C)c1,IC50,second compound 0.1 µM,> 300 nM
same,IC50,second compound 0.316 µM,> 300 nM
same,IC50,second compound 1 µM,> 300 nM
same,IC50,second compound 3.16 µM,> 300 nM
same,IC50,second compound 10 µM,> 300 nM
same,"viability, T/C","second compound 0.1 µM, first compound 0.000949 µM",98.4%
same,"viability, T/C","second compound 0.1 µM, first compound 0.003 µM",90.2%
same,"viability, T/C",[31],88.8%
same,"viability, T/C",[32],88.7%
same,"viability, T/C",[33],87.3%
same,"viability, T/C",[34],75.8%
same,"viability, T/C","second compound 0.316 µM, first compound 0.000949 µM",83.9%
same,"viability, T/C","second compound 0.316 µM, first compound 0.003 µM",93.8%
same,"viability, T/C",[35],83.5%
same,"viability, T/C",[36],81.2%
same,"viability, T/C",[37],84.6%
same,"viability, T/C",[38],75.5%
same,"viability, T/C","second compound 1 µM, first compound 0.000949 µM",84.3%
same,"viability, T/C","second compound 1 µM, first compound 0.003 µM",84.2%
same,"viability, T/C",[39],99.2%
same,"viability, T/C",[40],80.3%
same,"viability, T/C",[41],76.1%
same,"viability, T/C",[42],80.7%
same,"viability, T/C","second compound 3.16 µM, first compound 0.000949 µM",81.7%
same,"viability, T/C","second compound 3.16 µM, first compound 0.003 µM",87.9%
same,"viability, T/C",[43],85%
same,"viability, T/C",[44],73.3%
same,"viability, T/C",[45],86.4%
same,"viability, T/C",[46],78.7%
same,"viability, T/C","second compound 10 µM, first compound 0.000949 µM",73.8%
same,"viability, T/C","second compound 10 µM, first compound 0.003 µM",68.5%
same,"viability, T/C",[47],76.3%
same,"viability, T/C",[48],79.2%
same,"viability, T/C",[49],76.9%
same,"viability, T/C",[50],83.4%
O=C(C=Cn1cnc(-c2cc(C(F)(F)F)cc(C(F)(F)F)c2)n1)NNc1cnccn1 + Cc1ccccc1N=Nc1ccc(NC(=O)c2ccnn2C)c(C)c1,IC50,second compound 0.1 µM,443 nM
same,IC50,second compound 0.316 µM,442 nM
same,IC50,second compound 1 µM,535 nM
same,IC50,second compound 3.16 µM,274 nM
same,IC50,second compound 10 µM,268 nM
same,"viability, T/C",[31],76.4%
same,"viability, T/C",[32],79.8%
same,"viability, T/C",[33],61.7%
same,"viability, T/C",[34],54.5%
same,"viability, T/C","second compound 0.1 µM, first compound 0.949 µM",43.7%
same,"viability, T/C","second compound 0.1 µM, first compound 3 µM",34.4%
same,"viability, T/C",[35],72%
same,"viability, T/C",[36],62.8%
same,"viability, T/C",[37],60.8%
same,"viability, T/C",[38],49.8%
same,"viability, T/C","second compound 0.316 µM, first compound 0.949 µM",48.6%
same,"viability, T/C","second compound 0.316 µM, first compound 3 µM",36.7%
same,"viability, T/C",[39],70.5%
same,"viability, T/C",[40],66.9%
same,"viability, T/C",[41],58%
same,"viability, T/C",[42],44.7%
same,"viability, T/C","second compound 1 µM, first compound 0.949 µM",57.1%
same,"viability, T/C","second compound 1 µM, first compound 3 µM",40.3%
same,"viability, T/C",[43],64.1%
same,"viability, T/C",[44],63.6%
same,"viability, T/C",[45],56.2%
same,"viability, T/C",[46],46.3%
same,"viability, T/C","second compound 3.16 µM, first compound 0.949 µM",44.5%
same,"viability, T/C","second compound 3.16 µM, first compound 3 µM",35.4%
same,"viability, T/C",[47],65.5%
same,"viability, T/C",[48],59.7%
same,"viability, T/C",[49],52.5%
same,"viability, T/C",[50],51%
same,"viability, T/C","second compound 10 µM, first compound 0.949 µM",45.4%
same,"viability, T/C","second compound 10 µM, first compound 3 µM",39%
